# According to BigSolDB 2.1:
compound,measurement,setting,value
CC(=O)c1ccc2ccc(C)cc2c1,solubility (mole fraction),"in n-dodecane, 273.15 K",0.00013
same,solubility (mole fraction),"in n-dodecane, 275.15 K",0.000135
same,solubility (mole fraction),"in n-dodecane, 278.15 K",0.000158
same,solubility (mole fraction),"in n-dodecane, 281.15 K",0.000195
same,solubility (mole fraction),"in n-dodecane, 283.15 K",0.000205
same,solubility (mole fraction),"in n-dodecane, 286.15 K",0.000239
same,solubility (mole fraction),"in n-dodecane, 289.15 K",0.000287
same,solubility (mole fraction),"in n-dodecane, 292.15 K",0.000339
same,solubility (mole fraction),"in n-dodecane, 295.15 K",0.00041
same,solubility (mole fraction),"in n-dodecane, 297.15 K",0.000454
same,solubility (mole fraction),"in n-dodecane, 300.15 K",0.000526
same,solubility (mole fraction),"in n-heptane, 273.15 K",0.000115
same,solubility (mole fraction),"in n-heptane, 275.15 K",0.000124
same,solubility (mole fraction),"in n-heptane, 277.15 K",0.000138
same,solubility (mole fraction),"in n-heptane, 279.15 K",0.000157
same,solubility (mole fraction),"in n-heptane, 282.15 K",0.000182
same,solubility (mole fraction),"in n-heptane, 286.15 K",0.000228
same,solubility (mole fraction),"in n-heptane, 289.15 K",0.000268
same,solubility (mole fraction),"in n-heptane, 291.15 K",0.000297
same,solubility (mole fraction),"in n-heptane, 293.15 K",0.000344
same,solubility (mole fraction),"in n-octane, 273.15 K",0.000114
same,solubility (mole fraction),"in n-octane, 276.15 K",0.00013
same,solubility (mole fraction),"in n-octane, 279.15 K",0.000152
same,solubility (mole fraction),"in n-octane, 281.15 K",0.000172
same,solubility (mole fraction),"in n-octane, 284.15 K",0.000194
same,solubility (mole fraction),"in n-octane, 287.15 K",0.000231
same,solubility (mole fraction),"in n-octane, 289.15 K",0.000254
same,solubility (mole fraction),"in n-octane, 292.15 K",0.000291
same,solubility (mole fraction),"in n-octane, 295.15 K",0.000343
same,solubility (mole fraction),"in n-octane, 297.15 K",0.000387
CC(=O)c1ccc2cc(C)ccc2c1,solubility (mole fraction),"in n-dodecane, 273.15 K",0.00876
same,solubility (mole fraction),"in n-dodecane, 279.65 K",0.0122
same,solubility (mole fraction),"in n-dodecane, 283.15 K",0.0146
same,solubility (mole fraction),"in n-dodecane, 288.15 K",0.0188
same,solubility (mole fraction),"in n-dodecane, 291.15 K",0.022
same,solubility (mole fraction),"in n-dodecane, 293.65 K",0.0254
same,solubility (mole fraction),"in n-dodecane, 296.65 K",0.0291
same,solubility (mole fraction),"in n-dodecane, 299.15 K",0.0339
same,solubility (mole fraction),"in n-dodecane, 301.65 K",0.037
same,solubility (mole fraction),"in n-dodecane, 305.15 K",0.046
same,solubility (mole fraction),"in n-dodecane, 308.15 K",0.0535
same,solubility (mole fraction),"in n-dodecane, 311.15 K",0.0683
same,solubility (mole fraction),"in n-heptane, 273.15 K",0.00938
same,solubility (mole fraction),"in n-heptane, 277.15 K",0.0104
same,solubility (mole fraction),"in n-heptane, 279.15 K",0.0114
same,solubility (mole fraction),"in n-heptane, 282.15 K",0.013
same,solubility (mole fraction),"in n-heptane, 285.15 K",0.0151
same,solubility (mole fraction),"in n-heptane, 288.15 K",0.0177
same,solubility (mole fraction),"in n-heptane, 291.15 K",0.0217
same,solubility (mole fraction),"in n-heptane, 294.15 K",0.0258
same,solubility (mole fraction),"in n-heptane, 297.15 K",0.0293
same,solubility (mole fraction),"in n-heptane, 299.65 K",0.0345
same,solubility (mole fraction),"in n-heptane, 303.15 K",0.0428
same,solubility (mole fraction),"in n-heptane, 306.15 K",0.0484
same,solubility (mole fraction),"in n-heptane, 309.15 K",0.0566
same,solubility (mole fraction),"in n-heptane, 311.15 K",0.0629
same,solubility (mole fraction),"in n-heptane, 313.15 K",0.0716
same,solubility (mole fraction),"in n-heptane, 316.15 K",0.0852
same,solubility (mole fraction),"in n-heptane, 319.15 K",0.105
same,solubility (mole fraction),"in n-octane, 273.15 K",0.00895
same,solubility (mole fraction),"in n-octane, 277.65 K",0.0105
same,solubility (mole fraction),"in n-octane, 283.15 K",0.0139
same,solubility (mole fraction),"in n-octane, 287.15 K",0.0172
same,solubility (mole fraction),"in n-octane, 291.15 K",0.0211
same,solubility (mole fraction),"in n-octane, 293.15 K",0.0239
same,solubility (mole fraction),"in n-octane, 297.15 K",0.029
same,solubility (mole fraction),"in n-octane, 301.15 K",0.0371
same,solubility (mole fraction),"in n-octane, 303.15 K",0.0417
same,solubility (mole fraction),"in n-octane, 306.65 K",0.0487
same,solubility (mole fraction),"in n-octane, 311.15 K",0.0623
same,solubility (mole fraction),"in n-octane, 314.15 K",0.0755
same,solubility (mole fraction),"in n-octane, 316.15 K",0.0861
same,solubility (mole fraction),"in n-octane, 319.15 K",0.106
